Where two headings read alike, the source gives them in different places.
What was measured:
[1] = Vybrant MTT cytotoxicity assay in Hepa-1c1c7 cells; assay type: cell-based; conditions: mouse, read-out: cell viability
Procedure: The safe dose of the test compounds on murine hepatoma (Hepa1c1c-7) and mouse microglial cells (BV-2) was assessed by determining their cytotoxicity using Vybrant® MTT Cell Proliferation Assay Kit (Thermo Fisher Scientific, USA) following the manufacturer’s protocol. In the case of BV-2 cells, the cytotoxicity of the test compounds was assessed together with E. coli lipopolysaccharide (LPSEc), 200 ng/mL. The cell density was 5 × 10^5 cells/well (in a 96-well plate), and they were preincubated for 24 h. The test compounds (10, 5, 2.5, 1.25, and 0.625 μM) were then added to each well (in triplicate) and incubated for another 24 h. The solution’s absorbance was measured using Spectramax (Molecular Devices, San Jose, California, USA) M3 microplate reader. The cell viability was calculated using the following formula, and the results are presented as mean ± SD. Percent cell viability %=Atreated cells−Ablank /Auntreated cells−Ablank×100%

GSK-3β = molecular target: T1, GSK-3β (Homo sapiens, UniProt P49841); assay: GSK-3β kinase ADP-Glo assay; assay type: biochemical; conditions: ATP 25 μM, read-out: IC50, GSK-3β enzyme activity
T1 construct: purchased Promega
T1 sequence (P49841 whole entry): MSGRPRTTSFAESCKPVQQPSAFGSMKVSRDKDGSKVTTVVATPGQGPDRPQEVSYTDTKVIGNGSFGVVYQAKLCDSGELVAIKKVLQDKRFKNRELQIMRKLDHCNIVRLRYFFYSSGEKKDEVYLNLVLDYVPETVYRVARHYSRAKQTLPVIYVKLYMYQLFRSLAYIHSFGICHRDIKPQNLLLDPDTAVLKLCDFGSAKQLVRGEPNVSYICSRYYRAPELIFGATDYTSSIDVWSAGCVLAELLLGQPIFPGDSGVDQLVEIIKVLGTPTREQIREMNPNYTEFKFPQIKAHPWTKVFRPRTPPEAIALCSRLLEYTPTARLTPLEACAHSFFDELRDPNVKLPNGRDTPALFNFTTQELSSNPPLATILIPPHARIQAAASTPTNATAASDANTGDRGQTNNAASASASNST
Procedure: The effect of STCs on GSK-3β activity was determined using GSK-3β kinase enzyme (Promega, WI, USA) and ADP-Glo^TM kinase assay (Promega, USA) following the manufacturer’s protocol and reported method. The STCs were dissolved in the kinase buffer to prepare different concentrations (10, 1, 0.1, 0.01, and 0.001 μM). One microliter of the test compounds was added to each well (384 well plate), followed by the addition of 2 μL of GSK-3β kinase (1 ng), 2 μL of the GSK-3β substrate (0.4 μg), and 2 μL of the ATP (25 μM), and incubated for 60 min. Then, 5 μL of ADP-Glo^TM reagent was added and incubated further for 40 min. Then 10 μL of kinase detection reagent was added and incubated for 30 min. The luminescence was recorded using a SpectraMax®L microplate reader (Molecular Devices, San Jose, CA, USA). The IC50 (concentration of the test compound required to produce half-maximal […]) from dose-response curves using non-linear regression analysis using GraphPad Prism (9.5.0; San Diego, CA, USA) software.

IL-6 = IL-6 ELISA in LPSEc-stimulated BV-2 cells; assay type: cell-based, mouse; conditions: LPSEc 200 ng/mL; for IL-6 level: 1 μM; for inhibition at 1 µM: Mus musculus, BV-2, 1 μM, read-out: percentage of IL-6 inhibition
Procedure: (§1) The anti-inflammatory activity of the STCs was determined in E. coli lipopolysaccharide (LPSEc; Sigma Aldrich, USA)-induced inflammation in NRF2-proficient and NRF2 siRNA-transfected mouse microglial (BV-2) cells. The NRF2 was silenced in BV-2 cells using NRF2 siRNA (Santa Cruz Biotechnology, Dallas, TX, USA) in Opti-MEM transfection medium (Thermo Fisher Scientific, USA) using Lipofectamine^TM LTX reagent with PLUS^TM reagent (Thermo Fisher Scientific, USA) following the manufacturer’s protocol and reported method. The cells (5 × 10^5 cells/well) were allowed to form a monolayer by incubating them for 24 h and then adding LPSEc (200 ng/mL) for 4 h. The STCs (1 µM) were then added and incubated for another 20 h. The nitric oxide (NO) level in cell supernatant was determined using the Griess reagent kit (Thermo Fisher Scientific, USA). The levels of proinflammatory cytokines (IL-1β, IL-6, IFN-γ, and TNF-α) in cell supernatant solutions were determined using commercially available ELISA kits (Abcam, Cambridge, UK). The cell pellets were lysed using Cell Lysis buffer (Thermo Fisher Scientific, Waltham, MA, USA) following the manufacturer’s instructions. The supernatant solution in the wells was replaced with PBS, and cells were detached by scraping, washed with PBS, and centrifuged to collect the cell pellet. The cell pellet was lysed on ice in a cell lysis buffer for half an hour, vortexing at regular intervals. The cell lysate was centrifuged at 15,000 rpm for 15 min at 4 °C. The clear lysate was stored at −80 °C until further use. The protein concentration was determined using Bradford’s assay kit (Thermo Fisher Scientific, USA) following the manufacturer’s instructions. The expression of COX-2, NF-κB p65, NRF2, and HO-1 in cell lysates was determined using commercially available ELISA kits (Abcam, St, Louis, Missouri, USA) following the manufacturer’s protocol. In addition, the thiol content was determined using a thiol quantification assay kit (Abcam, USA).

TNF-α = TNF-α ELISA in LPSEc-stimulated BV-2 cells; assay type: cell-based, mouse; conditions: LPSEc 200 ng/mL; for inhibition at 1 µM: Mus musculus, BV-2, 1 μM, read-out: percentage of TNF-α inhibition
Procedure: as §1

PRDX1 = assay: qPCR gene expression in Hepa1c1c-7 cells: PRDX1; assay type: cell-based, mouse; conditions: 1 μM, 48 h, Hepa-1c1c7 cells
Procedure: (§2) Hepa1c1c-7 cells were treated with STCs (1 μM) for 48 h, and the total RNA was isolated using QIAzol®lysis reagent (Qiagen, Germany). Next, cDNA was synthesised using the ReverTra Ace® qPCR RT Master Mix Kit (Toyobo Research Reagents, Osaka, Japan). Quantitative PCR was performed using THUNDERBIRD^TM Next SYBR® qPCR Mix (Toyobo Research Reagents, Osaka, Japan) in CFX96 Touch Real-Time PCR Detection System (Bio-Rad Laboratories, San Jose, CA, USA). The genes tested and the respective primers (purchased from Integrated DNA Technologies, Coralville, IA, USA) used in the study are shown in Table 1. β-actin was used as a reference gene for the normalisation of target gene expression. The 2^−ΔΔCt method was used to measure the relative expression of target genes.

NQO1 = assay: qPCR gene expression in Hepa1c1c-7 cells: NQO1; assay type: cell-based, mouse; conditions: 1 μM, 48 h, Hepa-1c1c7 cells
Procedure: as §2

GSTP1 = assay: qPCR gene expression in Hepa1c1c-7 cells: GSTP1; assay type: cell-based, mouse; conditions: 1 μM, 48 h, Hepa-1c1c7 cells
Procedure: as §2

HMOX1 = assay: qPCR gene expression in Hepa1c1c-7 cells: HMOX1; assay type: cell-based, mouse; conditions: 1 μM, 48 h, Hepa-1c1c7 cells
Procedure: as §2

G6PDX = assay: qPCR gene expression in Hepa1c1c-7 cells: G6PDX; assay type: cell-based, mouse; conditions: 1 μM, 48 h, Hepa-1c1c7 cells
Procedure: as §2

TXNRD1 = assay: qPCR gene expression in Hepa1c1c-7 cells: TXNRD1; assay type: cell-based, mouse; conditions: 1 μM, 48 h, Hepa-1c1c7 cells
Procedure: as §2

[2] = tested on: free thiol content in NRF2-proficient BV-2 cells; assay: Thiol quantification assay in BV-2 cells; assay type: cell-based, mouse
Procedure: as §1, with “The STCs (1 µM) were then added and incubated for another 20 h.” left out, “The cell pellets were lysed using Cell Lysis buffer (Thermo Fisher Scientific, Waltham, MA, USA) following the manufacturer’s instructions. The supernatant solution in the wells was replaced with PBS, and cells were detached by scraping, washed with PBS, and centrifuged to collect the cell pellet. The cell pellet was lysed on ice in a cell lysis buffer for half an hour, vortexing at regular intervals. The cell lysate was centrifuged at 15,000 rpm for 15 min at 4 °C. The clear lysate was stored at −80 °C until further use.” left out

GSTA4 = assay: qPCR gene expression in Hepa1c1c-7 cells: GSTA4; assay type: cell-based, mouse; conditions: 1 μM, 48 h, Hepa-1c1c7 cells
Procedure: as §2

NRF2 = assay: qPCR gene expression in Hepa1c1c-7 cells: NRF2; assay type: cell-based, mouse; conditions: 1 μM, 48 h, Hepa-1c1c7 cells
Procedure: as §2

GCLC = assay: qPCR gene expression in Hepa1c1c-7 cells: GCLC; assay type: cell-based, mouse; conditions: 1 μM, 48 h, Hepa-1c1c7 cells
Procedure: as §2

GSTM2 = assay: qPCR gene expression in Hepa1c1c-7 cells: GSTM2; assay type: cell-based, mouse; conditions: 1 μM, 48 h, Hepa-1c1c7 cells
Procedure: as §2

GPX2 = assay: qPCR gene expression in Hepa1c1c-7 cells: GPX2; assay type: cell-based, mouse; conditions: 1 μM, 48 h, Hepa-1c1c7 cells
Procedure: as §2

[3] = 1 μM, NRF2-proficient BV-2 cells

Row | IC50 (GSK-3β) [nM] | Compound | IL-6 level (IL-6; NRF2-proficient BV-2 cells) [pg/mL] | IL-6 level (IL-6; NRF2-silenced BV-2 cells) [pg/mL] | TNF-α level (TNF-α; [3]) [pg/mL] | TNF-α level (TNF-α; 1 μM, NRF2-silenced BV-2 cells) [pg/mL] | PRDX1 gene expression foldchange (compared to control) (PRDX1) | NQO1 gene expression foldchange (compared to control) (NQO1) | GSTP1 gene expression foldchange (compared to control) (GSTP1) | HMOX1 gene expression foldchange (compared to control) (HMOX1) | G6PDX gene expression foldchange (compared to control) (G6PDX) | TXNRD1 gene expression foldchange (compared to control) (TXNRD1) | GSTA4 gene expression foldchange (compared to control) (GSTA4) | NRF2 gene expression foldchange (compared to control) (NRF2) | inhibition at 1 µM (IL-6; NRF2-proficient BV-2 cells) [%] | inhibition at 1 µM (IL-6; NRF2-silenced BV-2 cells) [%] | GCLC gene expression foldchange (compared to control) (GCLC) | inhibition at 1 µM (TNF-α; NRF2-proficient BV-2 cells) [%] | GSTM2 gene expression foldchange (compared to control) (GSTM2) | GPX2 gene expression foldchange (compared to control) (GPX2) | other results
1 | 870 ± 90 | COc1cc(CCC(=O)/C=C/c2ccc([N+](=O)[O-])s2)ccc1O [STC8, (E)-5-(4-Hydroxy-3-methoxyphenyl)-1-(5-nitrothiophen-2-yl)pent-1-en-3-one] | 431.667 ± 3.06 | 846.67 ± 11.68 | 1751.00 ± 77.90 | 3130.33 ± 27.47 | – | – | – | – | – | – | – | – | – | – | – | – | – | – | viability at 24 h ([1]; Hepa-1c1c7 cells, 2.5, 5 and 10 μM): < 90%
2 | 420 ± 130 | CCCCC/C=C/C(=O)CCc1ccc(O)c(OC)c1 [6-shogaol, reference compound] | 435.67 ± 7.77 | 852.67 ± 5.69 | 1734.00 ± 51.00 | 3113.00 ± 55.34 | 1.37 ± 0.07 | 1.20 ± 0.06 | 2.12 ± 0.09 | 1.34 ± 0.05 | 2.27 ± 0.03 | 1.20 ± 0.08 | 1.53 ± 0.02 | 1.26 ± 0.05 | 53 | 6.27 | 1.20 ± 0.05 | 40.4 | 1.19 ± 0.05 | 1.63 ± 0.06 | viability at 24 h ([1]; Hepa-1c1c7 cells, 5 and 10 μM): < 90%; free thiol content ([2]; NRF2-proficient BV-2 cells, untreated cells = 100%): 35.03 ± 3.70%; percentage of TNF-α inhibition (TNF-α; 1 μM, NRF2-silenced BV-2 cells): no inhibition
3 | 50 ± 1 | COc1cc(CCC(=O)/C=C/c2cc(-c3ccccc3)cs2)ccc1O [STC5, (E)-5-(4-Hydroxy-3-methoxyphenyl)-1-(4-phenylthiophen-2-yl)pent-1-en-3-one] | 212.33 ± 6.11 | 748.67 ± 8.33 | 850.00 ± 77.90 | 2581.00 ± 51.00 | 3.04 ± 0.09 | 2.94 ± 0.01 | 3.71 ± 0.09 | 3.01 ± 0.10 | 3.83 ± 0.02 | 2.52 ± 0.06 | 2.52 ± 0.03 | 3.21 ± 0.08 | 77.1 | 17.7 | 2.31 ± 0.05 | 70.8 | 3.19 ± 0.05 | 3.25 ± 0.11 | reactivity with thiols lower than that of 6-shogaol ([2]; versus 6-shogaol): about 70%; inhibition at 1 µM (TNF-α; NRF2-silenced BV-2 cells): 17%
